Assay results reported in patent US10112940B2, “Histone demethylase inhibitors” (Celgene Quanticel Research, Inc., priority 2014, dated 2018).

What was measured:
JMJD2C = JMJD2C (Homo sapiens (Human), UniProt Q9H3R0); assay: JMJD2C in vitro enzyme inhibition assay (TR-FRET); type: biochemical; settings: 0.3 nM JMJD2C, 300 nM H3K9me3-biotin peptide, 2 μM alpha-ketoglutaric acid, 30 minutes
Method: This assay determines the ability of a test compound to inhibit JMJD2C demethylase activity. Baculovirus expressed JMJD2C (GenBank Accession #BC143571, AA 2-372) was purchased from BPS Bioscience (Cat#50105).
The ability of test compounds to inhibit the activity of JMJD2C was determined in 384-well plate format under the following reaction conditions: 0.3 nM JMJD2C, 300 nM H3K9me3-biotin labeled peptide (Anaspec cat #64360), 2 μM alpha-ketoglutaric acid in assay buffer of 50 mM HEPES, pH7.3, 0.005% Brij35, 0.5 mM TCEP, 0.2 mg/ml BSA, 50 μM sodium L-ascorbate, and 2 μM ammonium iron(II) sulfate. Reaction product was determined quantitatively by TR-FRET after the addition of detection reagent Phycolink Streptavidin-allophycocyanin (Prozyme) and Europium-anti-di-methylated histone H3 lysine 9 (H3K9me2) antibody (PerkinElmer) in the presence of 5 mM EDTA in LANCE detection buffer (PerkinElmer) at a final concentration of 50 nM and 1 nM, respectively.
The assay reaction was initiated by the following: 2 μl of the mixture of 900 nM H3K9me3-biotin labeled peptide and 6 μM alpha-ketoglutaric acid with 2 μl of 11-point serial diluted inhibitor in 3% DMSO were added to each well of the plate, followed by the addition of 2 μl of 0.9 nM JMJD2C to initiate the reaction. The reaction mixture was incubated at room temperature for 30 minutes, and terminated by the addition of 6 μl of 5 mM EDTA in LANCE detection buffer containing 100 nM Phycolink Streptavidin-allophycocyanin and 2 nM Europium-anti-H3K9me2 antibody. Plates were read by EnVisionMultilabel Reader in TR-FRET mode (excitation at 320 nm, emission at 615 nm and 665 nm) after 1 hour incubation at room temperature. A ratio was calculated (665/615) for each well and fitted to determine inhibition constant (IC50).
The ability of the compounds disclosed herein to inhibit demethylase activity was quantified and the respective IC50 value was determined. Table 3 provides the IC50 values of various compounds disclosed herein.

[1] = system: KYSE-150 esophageal carcinoma cell line; assay: In vitro cell-based assay: BrdU incorporation cell proliferation ELISA; set-up: species or system human; settings: Homo sapiens, KYSE-150 cells, 168 hours compound incubation, read-out: Cellular IC50
Method: Cell lines tested include the JMJD2C gene amplified cell line KYSE-150. This is a quantitative ELISA assay measuring DNA incorporation of BrdU during S-phase as a direct readout of cellular proliferation.
Assay Principle: This is a colorimetric immunoassay for the quantification of cell proliferation. Cells treated for 168 hours with test compounds are assayed for their ability to go through S-phase as a measure of their proliferative potential.
Assay Method: The human KYSE-150 (SMAD4 mut, TP53 mut) esophageal carcinoma cell line was seeded at 2,000 cells/well on a 96-well tissue culture treated plate. After an overnight incubation, cells were treated with compound in an 11-point dilution series with final concentrations ranging from 100 μM to 2 nM. Cells were then incubated in the presence of compound for 168 hours. After compound incubation the cells were assayed using a BrdU Cell Proliferation ELISA (Roche). The cells were first incubated with BrdU labeling reagent for 2 hours. After 2 hours, the BrdU incorporated cells were fixed and denatured, probed with an anti-BrdU-Peroxidase antibody for 1.5 hours and washed. Finally, a tetramethylbenzidine peroxidase substrate was added to each well for 15 minutes followed by a H2SO4 stop solution. The plate was read at 450 nm, and the raw optical density data was transferred into XLFit (IDBS) for IC50 calculation using the formula: fit=(D+((Vmax*(x^n))/((x^n)+(Km^n))))
Table 4 provides the cellular IC50 values of various compounds disclosed herein.

Sequence of JMJD2C (Q9H3R0 2-372): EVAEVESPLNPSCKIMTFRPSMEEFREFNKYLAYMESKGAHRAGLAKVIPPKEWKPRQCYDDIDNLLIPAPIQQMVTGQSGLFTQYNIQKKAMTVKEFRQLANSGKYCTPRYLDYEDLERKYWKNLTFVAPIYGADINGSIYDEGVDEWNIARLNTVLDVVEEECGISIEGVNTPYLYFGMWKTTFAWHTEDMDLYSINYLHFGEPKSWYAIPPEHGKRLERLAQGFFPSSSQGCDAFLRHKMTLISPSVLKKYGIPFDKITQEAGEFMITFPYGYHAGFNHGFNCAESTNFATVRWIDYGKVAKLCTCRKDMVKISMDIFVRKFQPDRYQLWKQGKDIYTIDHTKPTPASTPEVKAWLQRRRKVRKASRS

Compound | IC50 (JMJD2C) | IC50 [1]
CCc1ccc(N(C)c2ccc(Oc3nc(O)c4ccncc4n3)cc2)cc1N1CCN(C)CC1 [Example 60, 2-[4-[4-ethyl-N-methyl-3-(4-methylpiperazin-1-yl)anilino]phenoxy]pyrido[3,4-d]pyrimidin-4-ol] | ≤ 100 nM | > 10000 nM
CN(C)c1ccc(N(C)c2ccc(Oc3nc(O)c4ccncc4n3)cc2)cc1 [Example 44, 2-[4-[4-(dimethylamino)-N-methylanilino]phenoxy]pyrido[3,4-d]pyrimidin-4-ol] | ≤ 100 nM | > 10000 nM
Oc1nc(Oc2ccc3c(ccn3C3CCOCC3)c2)nc2cnccc12 [Example 91, 2-[1-(oxan-4-yl)indol-5-yl]oxypyrido[3,4-d]pyrimidin-4-ol] | 100 to 1000 nM | > 10000 nM
CN(Cc1ccccc1)c1ccc(Oc2nc(O)c3ccncc3n2)cc1 [Example 6, 2-[4-(Benzyl-methyl-amino)-phenoxy]-pyrido[3,4-d]pyrimidin-4-ol] | 100 to 1000 nM | ≤ 100 nM
CC(C)c1ccc(N(C)c2ccc(Oc3nc(O)c4ccncc4n3)cc2)cc1 [Example 85, 2-[4-(N-methyl-4-propan-2-ylanilino)phenoxy]pyrido[3,4-d]pyrimidin-4-ol] | 1000 to 10000 nM | ≤ 100 nM
CN(c1ccc(Oc2nc(O)c3ccncc3n2)cc1)c1ccc(N2CCC(N)CC2)cc1 [Example 23, 2-(4-{[4-(4-amino-piperidin-1-yl)-phenyl]-methyl-amino}-phenoxy)-pyrido[3,4-d]pyrimidin-4-ol] | 100 to 1000 nM | 1000 to 10000 nM
CCN(c1ccc(Oc2nc(O)c3ccncc3n2)cc1)c1ccc(C(C)C)cc1 [Example 117, 2-(4-(ethyl(4-isopropylphenyl)amino)phenoxy)pyrido[3,4-d]pyrimidin-4-ol] | 1000 to 10000 nM | ≤ 100 nM
COC(C)c1ccc(N(C)c2ccc(Oc3nc(O)c4ccncc4n3)cc2)cc1 (stereo not shown) [Example 36, 2-(4-{[4-(1-methoxy-ethyl)-phenyl]-methyl-amino}-phenoxy)-pyrido[3,4-d]pyrimidin-4-ol] | 100 to 1000 nM | 100 to 1000 nM
CC(CC#N)c1ccc(N(C)c2ccc(Oc3nc(O)c4ccncc4n3)cc2)cc1 (stereo not shown) [Example 30, 3-(4-{[4-(4-hydroxy-pyrido[3,4-d]pyrimidin-2-yloxy)-phenyl]-methyl-amino}-phenyl)-butyronitrile] | 100 to 1000 nM | ≤ 100 nM
CN1CCC(N(C)c2cccc(N(C)c3ccc(Oc4nc(O)c5ccncc5n4)cc3)c2)CC1 [Example 89, 2-[4-[N-methyl-3-[methyl-(1-methylpiperidin-4-yl)amino]anilino]phenoxy]pyrido[3,4-d]pyrimidin-4-ol] | ≤ 100 nM | 1000 to 10000 nM
Cc1ccc(N(C)c2ccc(Oc3nc(O)c4ccncc4n3)cc2)cc1C [Example 83, 2-[4-(N,3,4-trimethylanilino)phenoxy]pyrido[3,4-d]pyrimidin-4-ol] | 1000 to 10000 nM | 100 to 1000 nM
CN(c1ccc(Oc2nc(O)c3ccncc3n2)cc1)c1ccc(C2CCOCC2)cc1 [Example 99, 2-[4-[N-methyl-4-(oxan-4-yl)anilino]phenoxy]pyrido[3,4-d]pyrimidin-4-ol] | 100 to 1000 nM | ≤ 100 nM
CN(c1ccc(Oc2nc(O)c3ccncc3n2)cc1)c1cccc(C(F)(F)F)c1 [Example 86, 2-[4-[N-methyl-3-(trifluoromethyl)anilino]phenoxy]pyrido[3,4-d]pyrimidin-4-ol] | 1000 to 10000 nM | 100 to 1000 nM
CN1CCCN(c2cccc(N(C)c3ccc(Oc4nc(O)c5ccncc5n4)cc3)c2)CC1 [Example 88, 2-[4-[N-methyl-3-(4-methyl-1,4-diazepan-1-yl)anilino]phenoxy]pyrido[3,4-d]pyrimidin-4-ol] | ≤ 100 nM | > 10000 nM
CC(CCN)c1ccc(N(C)c2ccc(Oc3nc(O)c4ccncc4n3)cc2)cc1 (stereo not shown) [Example 71, 2-[4-[4-(4-aminobutan-2-yl)-N-methylanilino]phenoxy]pyrido[3,4-d]pyrimidin-4-ol] | ≤ 100 nM | 1000 to 10000 nM
CN(c1ccc(Oc2nc(O)c3ccncc3n2)cc1)c1cncc(N2CCOCC2)c1 [Example 27, 2-{4-[methyl-(5-morpholin-4-yl-pyridin-3-yl)-amino]-phenoxy}-pyrido[3,4-d]pyrimidin-4-ol] | 100 to 1000 nM | > 10000 nM
COCC(C)c1ccc(N(C)c2ccc(Oc3nc(O)c4ccncc4n3)cc2)cc1 (stereo not shown) [Example 29, 2-(4-{[4-(2-methoxy-1-methyl-ethyl)-phenyl]-methyl-amino}-phenoxy)-pyrido[3,4-d]pyrimidin-4-ol] | 100 to 1000 nM | 100 to 1000 nM
CCc1ccc(N(C)c2ccc(Oc3nc(O)c4ccncc4n3)cc2)cc1N1CCOCC1 [Example 59, 2-[4-(4-ethyl-N-methyl-3-morpholin-4-ylanilino)phenoxy]pyrido[3,4-d]pyrimidin-4-ol] | ≤ 100 nM | > 10000 nM
CCCc1ccc(N(C)c2ccc(Oc3nc(O)c4ccncc4n3)cc2)cc1 [Example 69, 2-[4-(N-methyl-4-propylanilino)phenoxy]pyrido[3,4-d]pyrimidin-4-ol] | 1000 to 10000 nM | ≤ 100 nM
Oc1nc(Oc2ccc3c(ccn3C3CCNCC3)c2)nc2cnccc12 [Example 104, 2-(1-piperidin-4-ylindol-5-yl)oxypyrido[3,4-d]pyrimidin-4-ol] | ≤ 100 nM | > 10000 nM
CN(c1ccc(Oc2nc(O)c3ccncc3n2)cc1)c1ccnc(N2CCOCC2)c1 [Example 61, 2-[4-[methyl-(2-morpholin-4-ylpyridin-4-yl)amino]phenoxy]pyrido[3,4-d]pyrimidin-4-ol] | ≤ 100 nM | > 10000 nM
COCCN(c1ccc(Oc2nc(O)c3ccncc3n2)cc1)c1ccc(C(C)C)cc1 [Example 102, 2-[4-[N-(2-methoxyethyl)-4-propan-2-ylanilino]phenoxy]pyrido[3,4-d]pyrimidin-4-ol] | 100 to 1000 nM | 100 to 1000 nM
CCc1ccc(N(C)c2ccc(Oc3nc(O)c4ccncc4n3)cc2)cc1OCCN(C)C [Example 65, 2-[4-[3-[2-(dimethylamino)ethoxy]-4-ethyl-N-methylanilino]phenoxy]pyrido[3,4-d]pyrimidin-4-ol] | ≤ 100 nM | > 10000 nM
CN(c1ccc(Oc2nc(O)c3ccncc3n2)cc1)c1ccc(OC(F)(F)F)cc1 [Example 110, 2-[4-[N-methyl-4-(trifluoromethoxy)anilino]phenoxy]pyrido[3,4-d]pyrimidin-4-ol] | 1000 to 10000 nM | 100 to 1000 nM
Cc1ccc(N(C)c2ccc(Oc3nc(O)c4ccncc4n3)cc2)cc1N1CCOCC1 [Example 55, 2-[4-(N,4-dimethyl-3-morpholin-4-ylanilino)phenoxy]pyrido[3,4-d]pyrimidin-4-ol] | 100 to 1000 nM | 1000 to 10000 nM
CN1CCN(c2cccc(N(C)c3ccc(Oc4nc(O)c5ccncc5n4)cc3)c2)CC1 [Example 79, 2-[4-[N-methyl-3-(4-methylpiperazin-1-yl)anilino]phenoxy]pyrido[3,4-d]pyrimidin-4-ol] | ≤ 100 nM | ≤ 100 nM
CC(c1ccc(N(C)c2ccc(Oc3nc(O)c4ccncc4n3)cc2)cc1)C(F)(F)F (stereo not shown) [Example 108, 2-[4-[N-methyl-4-(1,1,1-trifluoropropan-2-yl)anilino]phenoxy]pyrido[3,4-d]pyrimidin-4-ol] | 100 to 1000 nM | ≤ 100 nM
CC[C@H](C)c1ccc(N(C)c2ccc(Oc3nc(O)c4ccncc4n3)cc2)cc1 [Example 77, 2-[4-[4-[(2S)-butan-2-yl]-N-methylanilino]phenoxy]pyrido[3,4-d]pyrimidin-4-ol] | 1000 to 10000 nM | ≤ 100 nM
CN(c1ccc(Oc2nc(O)c3ccncc3n2)cc1)c1ccc(C(C)(C)O)cc1 [Example 64, 2-[4-[4-(2-hydroxypropan-2-yl)-N-methylanilino]phenoxy]pyrido[3,4-d]pyrimidin-4-ol] | 100 to 1000 nM | 100 to 1000 nM
